Consider three molecules from patent US5447716A, “Process for lightening the skin or treating pigmental blemishes using a composition containing benzomorpholine or 3,4-dihydro-2H-1,4-benzoxazine derivatives” (L'Oreal, priority 1993, dated 1995).

One data set relates to fungal tyrosinase. The data set can be described thus: in vitro inhibition test of the activity of tyrosinase (dopachrome formation at 475 nm). The format is biochemical. To be noted: inhibitor at 50 mol % with respect to tyrosine; L-dopa co-substrate; pH 6.5, 25° C.; lowering in maximum dopachrome (OD 475 nm at plateau) vs no inhibitor. The text has this: Some of the compounds of general formula (I) have been studied in comparison with an equivalent molar amount of hydroquinone in the in vitro inhibition test of the activity of tyrosinase.
According to this test, the amount of dopachrome formed during the chain of reactions of conversion of tyrosine to melanins is monitored by visible spectrometry at 475 nm. These reactions are catalyzed in vitro by fungal tyrosinase, in the presence of a reducing co-substrate (for example, a small amount of L-dopa) in order to initiate the hydroxylation reaction of L-tyrosine to L-dopa, which is then catalytically oxidized to dopaquinone and then to dopachrome, an intermediate product before the non-enzymatic oxidation reactions which result in the formation of melanins.
The concentration of dopachrome formed with time in the presence and in the absence of the inhibitor is thus measured.
The inhibitor concentrations are set at 50 mol % with respect to the concentration of tyrosine in the reaction medium.
The inhibition effect is expressed by the lowering in the maximum amount of dopachrome formed (optical density value at 475 nm read at the plateau of the curve) with respect to the amount obtained in the absence of inhibitor.
A--0.1M Phosphate buffer, pH=6.5 (1% Tween 20)
B--2·10^-3 M Mother solution of L-tyrosine in A
C--10^-4 M Mother solution of L-dopa in A
D--Mother solution of fungal tyrosinase in A containing 2,400 units/ml
E--10^-2 M Mother solution of the inhibitor in A (Solutions C and D are to be prepared on the day)
reference cell: 3 ml of A
homogenize and equilibrate at 25° C.
mix rapidly and observe the kinetics by measuring the absorbance at 475 nm as a function of time.

The conditions of data set [1]: in words, background; cited from earlier work.
The next data set has as its system melanocytes. To be noted: in words, background; cited from earlier work.

With `Oc1ccc2c(c1)NCCO2`, the “% of inhibition” value in the data set on fungal tyrosinase was -80%.
On the same count and under the same terms, for `Oc1ccc2c(c1)OCCN2` the value was -71%.
With `Oc1ccc(O)cc1` [hydroquinone], the irritation result in data set [1] was “particularly irritating”. In addition, in the data set on fungal tyrosinase, the “% of inhibition” value is -33%. The cytotoxicity for melanocytes entry with melanocytes was “cytotoxic”.
